Measurements published in patent publication US11234988B2, “Fluorohydroxyproline derivatives useful in the preparation of proteolysis targeted chimeras” (UNIVERSITY OF DUNDEE, priority 2016, dated 2022).

Assays:
[1] = target: VBC complex (Homo sapiens, UniProt P40337); experiment: Isothermal titration calorimetry (ITC) of VHL ligands against VBC; type: binding; conditions: FIG. 3
Description: ITC Data on the Binding of VHL Ligands 14b and 14d
Titrations were performed on an ITC200 micro-calorimeter (GE Healthcare). Compounds 14b and 14d were diluted from a DMSO stock solution to 0.6 mM in a 20 mM HEPES, 150 mM NaCl, 1 mM TCEP (pH 7) buffer. The compound was titrated against 60 μM VBC complex, equilibrated in the same buffer. Total amount of DMSO in the buffer was 3%. The data were fitted to a single binding site model to obtain the stoichiometry n, the dissociation constant Kd and the enthalpy of binding ΔH using the Microcal LLC ITC200 Origin software provided by the manufacturer.

[2] = target: VHL (Homo sapiens, UniProt P40337); conditions: as reported in Galdeano et al. 2014 and Zengerle et al. 2015; cited from earlier work
VHL, sequence (P40337 54-213 limits assumed): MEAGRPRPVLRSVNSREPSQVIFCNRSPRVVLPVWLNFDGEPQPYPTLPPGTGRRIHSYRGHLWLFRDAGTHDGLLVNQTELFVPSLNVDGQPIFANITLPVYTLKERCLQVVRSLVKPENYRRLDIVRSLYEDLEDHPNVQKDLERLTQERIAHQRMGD
VHL, sequence (Q15370 1-104 partner limits assumed): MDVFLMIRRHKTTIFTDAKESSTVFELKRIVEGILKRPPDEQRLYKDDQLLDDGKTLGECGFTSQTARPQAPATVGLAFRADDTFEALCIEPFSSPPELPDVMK
VHL, sequence (Q15369 17-112 partner limits assumed): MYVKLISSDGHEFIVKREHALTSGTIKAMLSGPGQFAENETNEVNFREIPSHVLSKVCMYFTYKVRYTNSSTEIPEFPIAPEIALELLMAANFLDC

[3] = test system: BRD4; conditions: Zengerle et al. 2015; cited from earlier work

VBC complex, sequence (P40337 54-213 limits assumed): as the sequence (P40337 54-213 limits assumed) above
VBC complex, sequence (Q15370 1-104 partner limits assumed): as the sequence (Q15370 1-104 partner limits assumed) above
VBC complex, sequence (Q15369 17-112 partner limits assumed): as the sequence (Q15369 17-112 partner limits assumed) above

Kd [1] [nM]	ΔH [1] [kcal/mol]	ΔS [1] [cal/mol/deg]	Structure (SMILES)	binding to VHL [2]	removal of BRD4 over BRD2 and BRD3 [3]
235	-6.566	8.30	CC(=O)N[C@H](C(=O)N1C[C@H](O)[C@H](F)[C@H]1C(=O)NCc1ccc(-c2scnc2C)cc1)C(C)(C)C [Compound 14b]		
			Cc1ncsc1-c1ccc(CNC(=O)[C@@H]2C[C@H](O)CN2C(=O)[C@@H](NC(=O)COCCOCCOCCNC(=O)C[C@@H]2N=C(c3ccc(Cl)cc3)c3c(sc(C)c3C)-n3c(C)nnc32)C(C)(C)C)cc1 [cisMZ1, (2S,4S)-1-((S)-2-(tert-butyl)-17-((S)-4-(4-chlorophenyl)-2,3,9-trimethyl-6H-thieno[3,2-f][1,2,4]triazolo[4,3-a][1,4]diazepin-6-yl)-4,16-dioxo-6,9,12-trioxa-3,15-diazaheptadecanoyl)-4-hydroxy-N-(4-(4-methylthiazol-5-yl)benzyl)pyrrolidine-2-carboxamide]	did not exhibit any measureable binding affinity for VHL	
235	-6.566	8.30	CC(=O)N[C@H](C(=O)N1C[C@H](O)[C@@H](F)[C@H]1C(=O)NCc1ccc(-c2scnc2C)cc1)C(C)(C)C [Compound 14d]		
			Cc1ncsc1-c1ccc(CNC(=O)[C@@H]2C[C@@H](O)CN2C(=O)[C@@H](NC(=O)COCCOCCOCCNC(=O)C[C@@H]2N=C(c3ccc(Cl)cc3)c3c(sc(C)c3C)-n3c(C)nnc32)C(C)(C)C)cc1 [MZ1, (2S,4R)-1-((S)-2-(tert-butyl)-17-((S)-4-(4-chlorophenyl)-2,3,9-trimethyl-6H-thieno[3,2-f][1,2,4]triazolo[4,3-a][1,4]diazepin-6-yl)-4,16-dioxo-6,9,12-trioxa-3,15-diazaheptadecanoyl)-4-hydroxy-N-(4-(4-methylthiazol-5-yl)benzyl)pyrrolidine-2-carboxamide]	found to bind VHL	potently and rapidly induce reversible, long-lasting and unexpectedly selective removal of BRD4 over BRD2 and BRD3
